ChEMBL document CHEMBL1201862, “PubChem BioAssay data set” (2004)
Active and inactive are the calls of the source. No stated cut-off is given here; in the data, actives have a measured IC50 and inactives only a lower limit.

Molecular target: Envelope glycoprotein gp160 (Human immunodeficiency virus 1, UniProt Q6QLK5)
Test: cell-free HIV fusion peptide-binding blockers – biochemical, uHTS, fluorescence dequenching, […] (AID 1986)

Envelope glycoprotein gp160, sequence (Q6QLK5 whole entry, the tested form may be a part): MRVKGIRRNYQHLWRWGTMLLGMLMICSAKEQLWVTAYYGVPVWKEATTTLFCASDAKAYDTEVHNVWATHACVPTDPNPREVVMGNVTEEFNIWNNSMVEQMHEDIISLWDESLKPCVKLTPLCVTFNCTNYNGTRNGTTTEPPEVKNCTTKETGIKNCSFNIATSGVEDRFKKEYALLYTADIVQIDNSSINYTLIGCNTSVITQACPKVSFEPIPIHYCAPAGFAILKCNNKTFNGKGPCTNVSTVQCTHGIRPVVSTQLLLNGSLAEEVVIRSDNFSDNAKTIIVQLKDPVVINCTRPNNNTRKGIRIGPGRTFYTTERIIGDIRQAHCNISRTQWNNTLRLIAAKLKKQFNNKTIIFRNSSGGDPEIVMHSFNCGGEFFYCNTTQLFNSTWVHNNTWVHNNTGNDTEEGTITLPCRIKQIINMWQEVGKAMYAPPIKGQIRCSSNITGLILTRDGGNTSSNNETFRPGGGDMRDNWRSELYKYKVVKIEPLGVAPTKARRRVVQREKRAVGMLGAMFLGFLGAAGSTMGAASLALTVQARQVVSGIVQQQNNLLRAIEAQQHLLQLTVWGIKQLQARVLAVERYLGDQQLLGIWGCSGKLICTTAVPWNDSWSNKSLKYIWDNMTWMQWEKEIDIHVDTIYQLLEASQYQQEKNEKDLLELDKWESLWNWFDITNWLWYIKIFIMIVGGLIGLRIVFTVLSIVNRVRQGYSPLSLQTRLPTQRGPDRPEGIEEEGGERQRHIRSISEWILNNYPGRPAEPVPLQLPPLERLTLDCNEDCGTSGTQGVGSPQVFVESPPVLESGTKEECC

Question: With COc1ccc(C(=O)/C=C/c2cccc(OCc3ccccc3)c2)cc1CSCC(=O)O as the compound, how does the IC50 read?
Answer: 29.2 µM (active)
